These results are taken from patent US10004786B2 (Zealand Pharma A/S, priority 2009, dated 2018).

The nature of series [1]: Pharmacokinetic screening in mouse plasma after subcutaneous administration. Type of series: in vivo. As to conditions: sc, mice, 100 nmol/kg s.c., * = only two time points used for calculation. The procedure: Mice were dosed 100 nmol/kg subcutaneously (s.c.). The mice were sacrificed and the blood collected at the following time points; 0.5, 2, 4, 6, 16 and 24 h. Plasma samples were analyzed using protein precipitation, followed by solid phase extraction (SPE) and liquid chromatography mass spectrometry (LC-MS).
Pharmacokinetic profiles were determined for various acylated compounds.

A short description of series [2]: Oral glucose tolerance test after 21 days s.c. administration in long term high fat fed mice. The series is classed as in vivo. The conditions noted are these: 10 nmol/kg, long term high fat-fed C57BL/6J mice, two way ANOVA. The procedure: (§1) Male mice (Long term high fat fed C57Bl/6J, short term high fat fed C57Bl/6J and db/db) were acclimatized with free access to food and water. They were housed in groups of 5-6 in a light-, temperature-, and humidity-controlled room (12-hour light:12-hour dark cycle, lights On/Off at 2000/0800 hour; 24° C.; 50% relative humidity).
(§2) The animals were injected s.c. with 100 μl vehicle (once a day) for a period of three days to acclimatize the animals to handling and injections. Blood samples were taken from the eye or from the tip of the tail. The animals were randomized before treatment.
(§3) Mice were treated twice daily s.c. with GluGLP-1 agonist or vehicle (injection volume=2.5 ml/kg). Throughout the study, body weights were recorded daily and used to administer the body weight-corrected doses of peptide. Peptide solutions were prepared fresh immediately before dosing.
Oral glucose tolerance tests (OGTT) were performed after subjecting the animals to a short fast. To prevent confounding food intake, the animals were kept fasted during the OGTTs. After peptide dosing an initial blood sample was taken. […] The whole blood glucose (BG) was measured at t=15 min, t=30 min, t=60 min, t=90 min and t=120 min.
The BG concentration was analyzed by the immobilized glucose oxidase method using a drop of blood (<5 μl; Elite Autoanalyser, Bayer, Denmark) following the manufacturer's instructions. […]

Series [3] is described as follows: HbA1c in db/db mice after 28 days. The conditions noted are these: 4 weeks, 12.7 nmol/kg, P=0.03 Students t-test. The series is classed as in vivo. The procedure: as §1, §2
Mice were treated twice daily s.c. with GluGLP-1 agonist or vehicle (injection volume=2.5 ml/kg). Throughout the study, body weights were recorded daily and used to administer the body weight-corrected doses of peptide. Peptide solutions were prepared fresh immediately before dosing. […]
The HbA1c determination is based on Turbidimetric INhibition ImmunoAssay (TINIA) in which HbA1c in the sample reacts with anti-HbA1c to form soluble antigen-antibody complexes. Additions of polyhaptens react with excess anti-HbA1c antibodies to form an insoluble antibody-polyhapten complex, which can be measured turbidimetrically. Liberated hemoglobin in the hemolyzed sample is converted to a derivative having a characteristic absorption spectrum, which is measured bichromatically during the preincubation phases. […]

Series [4] can be described thus: Body weight after 21 days s.c. administration in long term high fat fed mice. Type of series: in vivo. The conditions noted are these: 21 days b.i.d. s.c., 10 nmol/kg, long term high fat-fed C57BL/6J mice; p<0.05. The procedure: as §1, §2, §3
Effect of 21 days s.c. administration of compound 11 on body weight was determined in long term high fat-fed C57BL/6J mice. C57Bl/6J male mice on high fat diet (HFD) were treated (b.i.d.; s.c.) with compound 11 (10 nmol/kg) or vehicle. Body weights were recorded daily and used to administer the body weight-corrected doses of peptide throughout the study. Data are shown as mean±SEM in FIG. 4.

Series [5] in a line: Body weight gain in high fat fed C57BL/6J mice (10 days). Type of series: in vivo. The conditions noted are these: 5 nmol/kg b.i.d. s.c., short term high fat-fed C57BL/6J mice. The procedure: C57Bl/6J male mice, 6 weeks old, were acclimatized in their new environment for 4 weeks with free access to high fat diet (HFD) (D12492, Research Diet Inc., New Brunswick, USA) and water. The animals were injected s.c. with 100 μl vehicle for a period of three days to acclimatize the animals to handling and injections, prior to initiation of peptide treatment. […] Throughout the study, body weights were recorded daily and used to administer the body weight-corrected doses of peptide. All animals were sacrificed on the same day by cervical dislocation.
C57Bl/6J male mice on high fat diet (HFD) were treated (b.i.d.; s.c.) (0.5 and 5 nmol/kg) or vehicle. Body weights were recorded daily and used to administer the body weight-corrected doses of peptide throughout the study. Data are shown as mean±SEM in FIG. 7.

A short description of series [6]: Plasma lipids after 3 weeks s.c. administration in 30 weeks high fat diet fed mice. Type of series: in vivo, C57BL/6J mice. The conditions noted are these: 10 nmol/kg twice daily s.c. The procedure:
The assay is an enzymatic colorimetric method. In the presence of magnesium ions, dextran sulfate selectively forms water-soluble complexes with LDL, VLDLA and chylomicrons, which are resistant to PEG-modified enzymes. The HDL cholesterol is determined enzymatically by cholesterol esterase and cholesterol oxidase coupled with PEG to the amino groups. Cholesterol esters are broken down quantitatively to free cholesterol and fatty acids. HDL cholesterol is enzymatically oxidized to choles-4-en-3-one and H2O2, and the formed H2O2 is measured colorimetrically (Cobas®; Application note HDLC3).
The direct determination of LDL takes advantage of the selective micellary solubilization of LDL by a nonionic detergent and the interaction of a sugar compound and lipoproteins (VLDL and chylomicrons). The combination of a sugar compound with detergent enables the selective determination of LDL in plasma. The test principle is the same as that of cholesterol and HDL, but due to the sugar and detergent only LDL-cholesterol esters are broken down to free cholesterol and fatty acids. Free cholesterol is then oxidized and the formed H2O2 is measured colorimetrically (Application note LDL_C, Cobas®).
The effect was measured on LDL, HDL and triglycerids (CHO: Total Cholesterol; HDL: High Density Cholesterol; LDL: Low Density Cholesterol; TRIG: Triglycerides; HDL/LDL: Ratio between HDL and LDL).

The nature of series [7]: Liver weight/body weight of C57BL/6J mice treated for 2 weeks. Type of series: in vivo. The procedure: Mice were treated twice daily s.c. with Cpd. 1 and Cpd. 11 (at two doses: 0.5 and 5 nmol/kg) or vehicle for 2 weeks. Throughout the study, body weights were recorded daily and used to administer the body weight-corrected doses of peptide. On the day of sacrifice, the liver was exposed, and weighed.

In another series the target is T1, human GLP-1R (Homo sapiens, UniProt P43220).
T1 construct: expressed in transfected cells
Nature of the series: GLP-1 receptor efficacy assay (cAMP formation in HEK293 cells expressing human GLP-1R). Type of series: cell-based. The conditions noted are these: Table 1a, HEK293 cells expressing hGLP-1R. The procedure:
(§4) The 5′-end primers additionally encoded a near Kozak consensus sequence to ensure efficient translation.
(§5) 48 hr after transfection cells were seeded for limited dilution cloning and selected with 1 mg/ml G418 in the culture medium.
(§6) On the day of analysis, growth medium was removed and the cells washed once with 200 μl Tyrode buffer. […] The reaction was stopped by addition of 25 μl 0.5 M HCl and incubated on ice for 60 min. The cAMP content was estimated using the FlashPlate® cAMP kit from Perkin-Elmer.
(§7) Efficacy of the GluGLP-1 agonists were estimated by exposing cells expressing hGlucagonR and hGLP-1R to the listed acylated compounds at increasing concentrations and measuring the formed cAMP as described in Methods.

The target in a further series is T2, human Glucagon-R (Homo sapiens, UniProt P47871).
T2 construct: expressed in transfected cells
Nature of the series: Glucagon receptor efficacy assay (cAMP formation in HEK293 cells expressing human Glucagon-R). As to conditions: Table 1a, HEK293 cells expressing hGlucagonR, read-out: EC50 (nM) GluR. Type of series: cell-based. The procedure:
as §4, §5, §6, §7

Numbered stars: 1 amine (or outer) side, 2 acyl side, 3 side chain; on linkers, the order of the positions; unused ones are H or OH. Square brackets hold non-standard residues; d marks the D form. Side chains are listed from the residue outwards. Peptide text beside a SMILES is read from it. * marks the point of attachment. γGlu = O=C(O)[C@H](CCC(=O)[*:2])N[*:1]; Palmitoyl = CCCCCCCCCCCCCCCC(=O)*; Aib = CC(C)(N)C(=O)O

T1 sequence (P43220 24-463): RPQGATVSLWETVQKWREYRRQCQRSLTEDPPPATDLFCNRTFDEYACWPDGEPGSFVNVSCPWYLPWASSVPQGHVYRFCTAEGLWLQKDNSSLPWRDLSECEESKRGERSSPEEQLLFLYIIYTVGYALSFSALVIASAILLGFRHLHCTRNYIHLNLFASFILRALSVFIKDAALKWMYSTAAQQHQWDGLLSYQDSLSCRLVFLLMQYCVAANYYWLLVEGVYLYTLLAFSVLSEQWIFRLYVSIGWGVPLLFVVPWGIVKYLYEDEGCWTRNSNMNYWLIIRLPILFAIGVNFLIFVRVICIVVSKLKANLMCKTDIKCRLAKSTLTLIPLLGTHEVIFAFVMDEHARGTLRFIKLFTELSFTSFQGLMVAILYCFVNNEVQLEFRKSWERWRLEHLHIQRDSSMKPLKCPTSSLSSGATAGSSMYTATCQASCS
T2 sequence (P47871 26-477): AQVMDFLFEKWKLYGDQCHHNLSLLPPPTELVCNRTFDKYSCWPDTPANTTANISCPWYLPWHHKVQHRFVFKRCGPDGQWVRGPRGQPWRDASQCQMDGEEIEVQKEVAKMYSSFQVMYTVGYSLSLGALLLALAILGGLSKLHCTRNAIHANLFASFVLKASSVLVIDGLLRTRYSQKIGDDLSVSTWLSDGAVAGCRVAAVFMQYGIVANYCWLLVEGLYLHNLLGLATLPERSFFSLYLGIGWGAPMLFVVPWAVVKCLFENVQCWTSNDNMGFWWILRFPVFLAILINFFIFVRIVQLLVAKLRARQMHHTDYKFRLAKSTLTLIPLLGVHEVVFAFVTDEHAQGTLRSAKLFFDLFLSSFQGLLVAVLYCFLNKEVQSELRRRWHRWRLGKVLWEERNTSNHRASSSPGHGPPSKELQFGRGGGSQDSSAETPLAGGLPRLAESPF

As a reminder, the half-life is the time in which the quantity being followed falls by half. On to `CCCCCCCCCCCCCCCC(=O)N[C@@H](CCC(=O)NCCCC[C@H](NC(=O)[C@H](CO)NC(=O)[C@H](CC(=O)O)NC(=O)[C@H](CC(C)C)NC(=O)[C@H](Cc1ccc(O)cc1)NC(=O)[C@H](CCCCN)NC(=O)[C@H](CO)NC(=O)[C@H](Cc1ccc(O)cc1)NC(=O)[C@H](CC(=O)O)NC(=O)[C@H](CO)NC(=O)[C@@H](NC(=O)[C@H](Cc1ccccc1)NC(=O)[C@@H](NC(=O)CNC(=O)[C@H](CCC(N)=O)NC(=O)C(C)(C)NC(=O)[C@@H](N)Cc1c[nH]cn1)[C@@H](C)O)[C@@H](C)O)C(=O)N[C@@H](C)C(=O)N[C@@H](C)C(=O)N[C@@H](Cc1c[nH]cn1)C(=O)N[C@@H](CC(=O)O)C(=O)N[C@@H](Cc1ccccc1)C(=O)N[C@H](C(=O)N[C@@H](CCC(=O)O)C(=O)N[C@@H](Cc1c[nH]c2ccccc12)C(=O)N[C@@H](CC(C)C)C(=O)N[C@@H](CC(C)C)C(=O)N[C@@H](CCCNC(=N)N)C(=O)N[C@@H](C)C(N)=O)C(C)C)C(=O)O` [Compound 11] (H-H[Aib]QGTFTSDYSKYLDSK([γGlu-Palmitoyl])AAHDFVEWLLRA-NH2), for which the half-life in series [1] is 4.9 h. Moreover, the oral glucose tolerance entry in [2] is recorded as “significantly improved glucose tolerance”. For the same compound, in series [3], the “ΔHbA1c (%) compared to vehicle” value was “decreased ΔHbA1c (%) significantly”. Further, the body weight entry in [4] is reported as “significantly decreased body weight”. The “body weight gain, high dose” value in [5] is on record as “significantly decreased body weight gain at the high dose”. Further, in [6] (P<0.001), the HDL entry was “significantly decreased”, the LDL entry was “significantly decreased” and the “cholesterol (total)” value is “significantly decreased”. For the same compound, the triglycerides result in [6] (P<0.05) is listed as “significantly decreased”. The “ratio HDL/LDL” value in [6] (p<0.001) is recorded as “increased significantly”. Besides, the “liver weight/body weight ratio, low dose” value in series [7] (0.5 nmol/kg twice daily s.c.) is given as “did not affect”. For the same compound, the “liver weight/body weight ratio, high dose” value in series [7] (5 nmol/kg twice daily s.c.) was “did not affect”. In series [7] (repeated treatment, C57 healthy control mice, compared with compound 1), the “change in liver size” value is listed as “do not give rise to change in liver size”.
As usually defined, the EC50 is the concentration at which the effect is half-maximal. `CCCCCCCCCCCCCCCC(=O)NCCCC[C@H](NC(=O)[C@H](CO)NC(=O)[C@H](CC(=O)O)NC(=O)[C@H](CC(C)C)NC(=O)[C@H](Cc1ccc(O)cc1)NC(=O)[C@H](CCCCN)NC(=O)[C@H](CO)NC(=O)[C@H](Cc1ccc(O)cc1)NC(=O)[C@H](CC(=O)O)NC(=O)[C@H](CO)NC(=O)[C@@H](NC(=O)[C@H](Cc1ccccc1)NC(=O)[C@@H](NC(=O)CNC(=O)[C@H](CCC(N)=O)NC(=O)C(C)(C)NC(=O)[C@@H](N)Cc1c[nH]cn1)[C@@H](C)O)[C@@H](C)O)C(=O)N[C@@H](C)C(=O)N[C@@H](C)C(=O)N[C@@H](Cc1c[nH]cn1)C(=O)N[C@@H](CC(=O)O)C(=O)N[C@@H](Cc1ccccc1)C(=O)N[C@H](C(=O)N[C@@H](CCC(=O)O)C(=O)N[C@@H](Cc1c[nH]c2ccccc12)C(=O)N[C@@H](CC(C)C)C(=O)N[C@@H](CC(C)C)C(=O)N[C@@H](CO)C(=O)N[C@@H](C)C(N)=O)C(C)C` [Compound 23] yielded an EC50 at human GLP-1R of 0.14 nM.
On to `CCCCCCCCCCCCCCCC(=O)N[C@@H](CCC(=O)NCCCC[C@H](NC(=O)[C@H](CCC(=O)O)NC(=O)[C@H](CC(=O)O)NC(=O)[C@H](CC(C)C)NC(=O)[C@H](Cc1ccc(O)cc1)NC(=O)[C@H](CCCCN)NC(=O)[C@H](CO)NC(=O)[C@H](Cc1ccc(O)cc1)NC(=O)[C@H](CC(=O)O)NC(=O)[C@H](CO)NC(=O)[C@@H](NC(=O)[C@H](Cc1ccccc1)NC(=O)[C@@H](NC(=O)CNC(=O)[C@H](CCC(N)=O)NC(=O)C(C)(C)NC(=O)[C@@H](N)Cc1c[nH]cn1)[C@@H](C)O)[C@@H](C)O)C(=O)N[C@@H](C)C(=O)N[C@@H](C)C(=O)N[C@@H](Cc1c[nH]cn1)C(=O)N[C@@H](CC(=O)O)C(=O)N[C@@H](Cc1ccccc1)C(=O)N[C@H](C(=O)N[C@@H](CCC(=O)O)C(=O)N[C@@H](Cc1c[nH]c2ccccc12)C(=O)N[C@@H](CC(C)C)C(=O)N[C@@H](CC(C)C)C(=O)N[C@@H](CO)C(=O)N[C@@H](C)C(N)=O)C(C)C)C(=O)O` [Compound 40] (H-H[Aib]QGTFTSDYSKYLDEK([γGlu-Palmitoyl])AAHDFVEWLLSA-NH2), for which the EC50 on human GLP-1R stood at 0.2 nM; at human Glucagon-R, 0.18 nM.
